From PubChem BioAssay (NCI)
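Here, GI50 denotes the concentration required for 50% inhibition of growth. TGI denotes the concentration required for complete inhibition of growth.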

What was measured:
Test in all cases: NCI-60 cell line screen, 384-well format
EKVX NSCLC = test system: EKVX NSCLC
SF-295 CNS = test system: SF-295 CNS
OVCAR-8 ovarian = test system: OVCAR-8 ovarian
HCC-2998 colon = test system: HCC-2998 colon
786-0 renal = test system: 786-0 renal
SNB-19 CNS = test system: SNB-19 CNS
HL-60(TB) leukemia = test system: HL-60(TB) leukemia
HT29 colon = test system: HT29 colon
COLO 205 colon = test system: COLO 205 colon
NCI-H522 lung = test system: NCI-H522 lung
MALME-3M melanoma = test system: MALME-3M melanoma
MOLT-4 leukemia = test system: MOLT-4 leukemia
A498 renal = test system: A498 renal
HS 578T breast = test system: HS 578T breast
KM12 colon = test system: KM12 colon
NCI-H226 lung = test system: NCI-H226 lung
T-47D breast = test system: T-47D breast
PC-3 prostate = test system: PC-3 prostate
SNB-75 CNS = test system: SNB-75 CNS
ACHN renal = test system: ACHN renal
SR leukemia = test system: SR leukemia
RPMI-8226 leukemia = test system: RPMI-8226 leukemia
DU-145 prostate = test system: DU-145 prostate
UACC-257 melanoma = test system: UACC-257 melanoma
MDA-MB-435 melanoma = test system: MDA-MB-435 melanoma
MCF7 breast = test system: MCF7 breast
K-562 leukemia = test system: K-562 leukemia
SN12C renal = test system: SN12C renal
CCRF-CEM leukemia = test system: CCRF-CEM leukemia
SK-OV-3 ovarian = test system: SK-OV-3 ovarian
HOP-92 NSCLC = test system: HOP-92 NSCLC
HOP-62 NSCLC = test system: HOP-62 NSCLC
OVCAR-3 ovarian = test system: OVCAR-3 ovarian
NCI-H460 NSCLC = test system: NCI-H460 NSCLC
BT-549 breast = test system: BT-549 breast
A549 NSCLC = test system: A549 NSCLC
HCT-116 colon = test system: HCT-116 colon
U251 glioblastoma = test system: U251 glioblastoma
NCI-H322M lung = test system: NCI-H322M lung
RXF 393 renal = test system: RXF 393 renal
UACC-62 melanoma = test system: UACC-62 melanoma
MDA-MB-468 breast = test system: MDA-MB-468 breast
CAKI-1 renal = test system: CAKI-1 renal
IGROV1 ovarian = test system: IGROV1 ovarian
LOX IMVI melanoma = test system: LOX IMVI melanoma
SW-620 colon = test system: SW-620 colon
SK-MEL-28 melanoma = test system: SK-MEL-28 melanoma
NCI/ADR-RES ovarian = test system: NCI/ADR-RES ovarian
M14 melanoma = test system: M14 melanoma
NCI-H23 lung = test system: NCI-H23 lung
TK-10 renal = test system: TK-10 renal
UO-31 renal = test system: UO-31 renal
HCT-15 colon = test system: HCT-15 colon
SF-539 CNS = test system: SF-539 CNS
SK-MEL-5 melanoma = test system: SK-MEL-5 melanoma
MDA-MB-231 breast = test system: MDA-MB-231 breast
OVCAR-4 ovarian = test system: OVCAR-4 ovarian
SF-268 CNS = test system: SF-268 CNS
OVCAR-5 ovarian = test system: OVCAR-5 ovarian

## Cc1nc2ccc(NC(=O)CCNC(=O)CCCc3ccc(CC(C(=O)O)C(=O)O)cc3)cc2s1
EKVX NSCLC
  GI50: > 100 µM
  TGI: > 100 µM
SF-295 CNS
  GI50: > 100 µM
  TGI: > 100 µM
OVCAR-8 ovarian
  GI50: > 100 µM
  TGI: > 100 µM
HCC-2998 colon
  GI50: > 100 µM
  TGI: > 100 µM
786-0 renal
  GI50: > 100 µM
  TGI: > 100 µM
SNB-19 CNS
  GI50: > 100 µM
  TGI: > 100 µM
HL-60(TB) leukemia
  GI50: > 100 µM
  TGI: > 100 µM
HT29 colon
  GI50: > 100 µM
  TGI: > 100 µM
COLO 205 colon
  GI50: > 100 µM
  TGI: > 100 µM
NCI-H522 lung
  GI50: > 100 µM
  TGI: > 100 µM
MALME-3M melanoma
  GI50: > 100 µM
  TGI: > 100 µM
MOLT-4 leukemia
  GI50: > 100 µM
  TGI: > 100 µM
A498 renal
  GI50: > 100 µM
  TGI: > 100 µM
HS 578T breast
  GI50: > 100 µM
  TGI: > 100 µM
KM12 colon
  GI50: > 100 µM
  TGI: > 100 µM
NCI-H226 lung
  GI50: > 100 µM
  TGI: > 100 µM
T-47D breast
  GI50: > 100 µM
  TGI: > 100 µM
PC-3 prostate
  GI50: > 100 µM
  TGI: > 100 µM
SNB-75 CNS
  GI50: > 100 µM
  TGI: > 100 µM
ACHN renal
  GI50: > 100 µM
  TGI: > 100 µM
SR leukemia
  GI50: > 100 µM
  TGI: > 100 µM
RPMI-8226 leukemia
  GI50: > 100 µM
  TGI: > 100 µM
DU-145 prostate
  GI50: > 100 µM
  TGI: > 100 µM
UACC-257 melanoma
  GI50: > 100 µM
  TGI: > 100 µM
MDA-MB-435 melanoma
  GI50: > 100 µM
  TGI: > 100 µM
MCF7 breast
  GI50: > 100 µM
  TGI: > 100 µM
K-562 leukemia
  GI50: > 100 µM
  TGI: > 100 µM
SN12C renal
  GI50: > 100 µM
  TGI: > 100 µM
CCRF-CEM leukemia
  GI50: > 100 µM
  TGI: > 100 µM
SK-OV-3 ovarian
  GI50: > 100 µM
  TGI: > 100 µM
HOP-92 NSCLC
  GI50: > 100 µM
  TGI: > 100 µM
HOP-62 NSCLC
  GI50: > 100 µM
  TGI: > 100 µM
OVCAR-3 ovarian
  GI50: > 100 µM
  TGI: > 100 µM
NCI-H460 NSCLC
  GI50: > 100 µM
  TGI: > 100 µM
BT-549 breast
  GI50: > 100 µM
  TGI: > 100 µM
A549 NSCLC
  GI50: > 100 µM
  TGI: > 100 µM
HCT-116 colon
  GI50: > 100 µM
  TGI: > 100 µM
U251 glioblastoma
  GI50: > 100 µM
  TGI: > 100 µM
NCI-H322M lung
  GI50: > 100 µM
  TGI: > 100 µM
RXF 393 renal
  GI50: > 100 µM
  TGI: > 100 µM
UACC-62 melanoma
  GI50: > 100 µM
  TGI: > 100 µM
MDA-MB-468 breast
  GI50: > 100 µM
  TGI: > 100 µM
CAKI-1 renal
  GI50: > 100 µM
  TGI: > 100 µM
IGROV1 ovarian
  GI50: > 100 µM
  TGI: > 100 µM
LOX IMVI melanoma
  GI50: > 100 µM
  TGI: > 100 µM
SW-620 colon
  GI50: > 100 µM
  TGI: > 100 µM
SK-MEL-28 melanoma
  GI50: > 100 µM
  TGI: > 100 µM
NCI/ADR-RES ovarian
  GI50: > 100 µM
  TGI: > 100 µM
M14 melanoma
  GI50: > 100 µM
  TGI: > 100 µM
NCI-H23 lung
  GI50: > 100 µM
  TGI: > 100 µM
TK-10 renal
  GI50: > 100 µM
  TGI: > 100 µM
UO-31 renal
  GI50: > 100 µM
  TGI: > 100 µM
HCT-15 colon
  GI50: > 100 µM
  TGI: > 100 µM
SF-539 CNS
  GI50: > 100 µM
  TGI: > 100 µM
SK-MEL-5 melanoma
  GI50: > 100 µM
  TGI: > 100 µM
MDA-MB-231 breast
  GI50: > 100 µM
  TGI: > 100 µM
OVCAR-4 ovarian
  GI50: > 100 µM
  TGI: > 100 µM
SF-268 CNS
  GI50: > 100 µM
  TGI: > 100 µM

## CCN(c1cc(-c2ccc(CN3CCOCC3)cc2)cc(C(=O)NCc2c(C)cc(C)[nH]c2=O)c1C)C1CCOCC1
EKVX NSCLC
  GI50: > 100 µM
  TGI: > 100 µM
SF-295 CNS
  GI50: > 100 µM
  TGI: > 100 µM
OVCAR-8 ovarian
  GI50: > 100 µM
  TGI: > 100 µM
HCC-2998 colon
  GI50: > 100 µM
  TGI: > 100 µM
786-0 renal
  GI50: > 85.4 µM
  TGI: > 100 µM
SNB-19 CNS
  GI50: > 100 µM
  TGI: > 100 µM
HL-60(TB) leukemia
  GI50: > 49.7 µM
  TGI: > 85.8 µM
HT29 colon
  GI50: > 100 µM
  TGI: > 100 µM
COLO 205 colon
  GI50: > 100 µM
  TGI: > 100 µM
NCI-H522 lung
  GI50: > 100 µM
  TGI: > 100 µM
MALME-3M melanoma
  GI50: > 100 µM
  TGI: > 100 µM
MOLT-4 leukemia
  GI50: 68.4 µM
  TGI: > 100 µM
A498 renal
  GI50: > 81.8 µM
  TGI: > 100 µM
HS 578T breast
  GI50: > 100 µM
  TGI: > 100 µM
KM12 colon
  GI50: > 100 µM
  TGI: > 100 µM
NCI-H226 lung
  GI50: > 100 µM
  TGI: > 100 µM
T-47D breast
  GI50: > 100 µM
  TGI: > 100 µM
PC-3 prostate
  GI50: > 100 µM
  TGI: > 100 µM
SNB-75 CNS
  GI50: > 100 µM
  TGI: > 100 µM
ACHN renal
  GI50: > 100 µM
  TGI: > 100 µM
SR leukemia
  GI50: > 75.7 µM
  TGI: > 100 µM
RPMI-8226 leukemia
  GI50: 1.39 µM
  TGI: > 100 µM
DU-145 prostate
  GI50: > 100 µM
  TGI: > 100 µM
UACC-257 melanoma
  GI50: > 100 µM
  TGI: > 100 µM
MDA-MB-435 melanoma
  GI50: > 100 µM
  TGI: > 100 µM
MCF7 breast
  GI50: > 100 µM
  TGI: > 100 µM
SN12C renal
  GI50: > 100 µM
  TGI: > 100 µM
CCRF-CEM leukemia
  GI50: > 100 µM
  TGI: > 100 µM
SK-OV-3 ovarian
  GI50: > 100 µM
  TGI: > 100 µM
HOP-92 NSCLC
  GI50: > 90.3 µM
  TGI: > 100 µM
HOP-62 NSCLC
  GI50: > 100 µM
  TGI: > 100 µM
OVCAR-3 ovarian
  GI50: > 100 µM
  TGI: > 100 µM
NCI-H460 NSCLC
  GI50: > 100 µM
  TGI: > 100 µM
BT-549 breast
  GI50: > 37.1 µM
  TGI: > 63.9 µM
A549 NSCLC
  GI50: > 76.9 µM
  TGI: > 100 µM
HCT-116 colon
  GI50: > 77.3 µM
  TGI: > 100 µM
U251 glioblastoma
  GI50: > 100 µM
  TGI: > 100 µM
NCI-H322M lung
  GI50: > 100 µM
  TGI: > 100 µM
RXF 393 renal
  GI50: > 60.3 µM
  TGI: > 100 µM
UACC-62 melanoma
  GI50: > 100 µM
  TGI: > 100 µM
MDA-MB-468 breast
  GI50: > 100 µM
  TGI: > 100 µM
CAKI-1 renal
  GI50: > 69.4 µM
  TGI: > 100 µM
IGROV1 ovarian
  GI50: > 91.5 µM
  TGI: > 100 µM
LOX IMVI melanoma
  GI50: > 51.5 µM
  TGI: > 100 µM
SW-620 colon
  GI50: > 100 µM
  TGI: > 100 µM
SK-MEL-28 melanoma
  GI50: > 100 µM
  TGI: > 100 µM
NCI/ADR-RES ovarian
  GI50: > 100 µM
  TGI: > 100 µM
M14 melanoma
  GI50: > 100 µM
  TGI: > 100 µM
NCI-H23 lung
  GI50: > 100 µM
  TGI: > 100 µM
TK-10 renal
  GI50: > 100 µM
  TGI: > 100 µM
UO-31 renal
  GI50: > 100 µM
  TGI: > 100 µM
HCT-15 colon
  GI50: 98.3 µM
  TGI: > 100 µM
OVCAR-5 ovarian
  GI50: > 100 µM
  TGI: > 100 µM
SF-539 CNS
  GI50: > 100 µM
  TGI: > 100 µM
SK-MEL-5 melanoma
  GI50: > 100 µM
  TGI: > 100 µM
MDA-MB-231 breast
  GI50: > 100 µM
  TGI: > 100 µM
OVCAR-4 ovarian
  GI50: > 100 µM
  TGI: > 100 µM
SF-268 CNS
  GI50: > 100 µM
  TGI: > 100 µM
